From US20230310473A1, “METHOD FOR TREATING OBESITY AND/OR HYPERTENSION” (THE ROYAL INSTITUTION FOR THE ADVANCEMENT OF …, priority 2022, published 2023)

Key:
[1] = system: inflammation, oxidative stress and endoplasmic reticulum stress markers in thoracic aorta; experiment: Western blot and qRT-PCR markers in thoracic aorta of HFD obese mice; format: in vivo
From the text: FIG. 3D is a western blot of phospho-endothelial nitric oxide synthase (P-eNOS), […] endothelial nitric oxide synthase (T-eNOS), binding protein (BIP), C/EBP homologous protein (CHOP), tumor necrosis factor alpha (TNFα), P65 and glyceraldehyde-3-phosphate dehydrogenase (GAPDH), for the control mice, the HFD mice and the EXP mice.
FIG. 3W is a heat map showing all the markers in thoracic aorta from control mice and mice fed with HFD in the presence and absence of low levan β-[2,6]-glycosidic linkages treatment.
(§1) Eight-week-old C57/b6 male mice (stock number 000664, Jackson Labs) were fed with a high fat diet (HFD) for 12 weeks in the presence and absence of levan having β-[2,6]-glycosidic linkages. More specifically, the mice were fed either standard diet (SD; 5.8% fat, 44.3% carbohydrate, 19.1% protein) or high fat (HFD; 60% fat, 20% carbohydrate, 20% protein) diet for 12 weeks. Levan having β-[2,6]-glycosidic linkages was administered by gavage (250 mg/Kg) for the last 4 weeks of HFD feeding for a subgroup of mice, the experimental group. Bodyweight, blood glucose, body composition, and lipid profile were determined. Vascular function and endothelial function markers were studied in aorta and mesenteric resistance arteries (MRA). Furthermore, body weight was measured weekly, lean and fat mass were measured by EchoMRl, blood glucose and lipid plasma levels were measured, and the thoracic aorta and mesenteric resistance arteries (MRA) were harvested and used for western blot, quantitative real time (qRT-) PCR and vascular reactivity using the wire myograph.

[2] = system: inflammation, oxidative stress and ER stress markers in distal colon; experiment: mRNA markers in distal colon of HFD obese mice; format: in vivo
From the text: FIG. 6L is a heat map showing all the markers in distal colon from control mice and mice fed with HFD in the presence and absence of low levan β-[2,6]-glycosidic linkages treatment.
as §1

[3] = High fat diet (HFD) obesity mouse model: body weight, body composition, blood glucose, lipid profile; format: in vivo, mice; details: for body weight: HFD-fed C57/b6 male mice, levan 250 mg/Kg by gavage, last 4 weeks of 12 weeks HFD
Protocol: as §1
Results, reported as means ± standard error (SE), were analyzed using GraphPad Prism 9 (GraphPad Software, San Diego, CA). T-tests and one-way ANOVA were used to compare certain paired parameters. Unless specified otherwise, the values for p are *p<0.05; **p<0.01; ***p<0.001; and ****p<0.0001.

[4] = system: mesenteric resistance arteries (MRA); experiment: Vascular reactivity (wire myograph) of mesenteric resistance arteries from HFD obese mice; format: in vivo
From the text: FIG. 4B is a graph of the mesenteric relaxation percentage in function of the logarithm of the concentration of acetylcholine (endothelium dependent relaxation to Ach) for control mice (1), EXP mice (2) and HFD mice (3).
FIG. 4C is a graph of the mesenteric relaxation percentage in function of the logarithm of the concentration of sodium nitroprusside (SNP) (endothelium independent relaxation to SNP) for control mice (1), EXP mice (2) and HFD mice (3).
as §1

[5] = Liver function (ALT, ALP) in angiotensin II hypertensive mice; format: in vivo
From the text: FIG. 11A is a graph showing the level of Alanine Aminotransferase/SGPT (ALT) in control mice administered vehicle, EXP mice administered angiotensin II and levan, and mice administered angiotensin II without levan.
FIG. 11B is a graph showing the level of alkaline phosphatase (ALP) in control mice administered vehicle, EXP mice administered angiotensin II and levan, and mice administered angiotensin II without levan.

[6] = Systolic blood pressure in angiotensin II hypertensive mice; format: in vivo; details: mice with hypertension (angiotensin II); vs angiotensin II without levan
From the text: FIG. 8A is a graph showing the systolic blood pressure (BP) in function of time for control mice administered vehicle (1), EXP mice administered angiotensin II and levan (2) and mice administered angiotensin II without levan (3).

[7] = system: inflammation, oxidative stress and ER stress markers in distal colon; experiment: mRNA markers in distal colon of angiotensin II hypertensive mice; format: in vivo
From the text: FIG. 10K is a heat map showing the markers in distal colon from normotensive mice and hypertensive mice treated with and without low levan β-[2,6]-glycosidic linkages treatment.

aorta = experiment: Vascular contraction and relaxation of aorta from angiotensin II hypertensive mice; format: in vivo
From the text: FIG. 8C is a graph showing the aorta contraction percentage in response to the log of phenylephrine (PE) concentration for control mice administered vehicle (1), EXP mice administered angiotensin II and levan (2) and mice administered angiotensin II without levan (3).
FIG. 8D is a graph showing the aorta contraction percentage in response to the log of thromboxane A analog (TXA) concentration for control mice administered vehicle (1), EXP mice administered angiotensin II and levan (2) and mice administered angiotensin II without levan (3).
FIG. 8E is a graph showing the aorta contraction percentage in response to the log of angiotensin II (Ang II) concentration for control mice administered vehicle (1), EXP mice administered angiotensin II and levan (2) and mice administered angiotensin II without levan (3).
(§2) FIG. 8F is a graph showing the aorta relaxation percentage in function of the logarithm of the concentration of acetylcholine (endothelium dependent relaxation to Ach) for control mice administered vehicle (1), EXP mice administered angiotensin II and levan (2) and mice administered angiotensin II without levan (3).
as §2, with “8G” for “8F”, “of” for “showing”, “sodium nitroprusside (SNP)” for “acetylcholine”, “independent” for “dependent”, “SNP)” for “Ach)”

thoracic aorta = experiment: Vascular reactivity (wire myograph) of thoracic aorta from HFD obese mice; format: in vivo
From the text: FIG. 3A a graph showing the original traces for the harvesting of the thoracic aorta from mice C, HFD and EXP, and exposing the aortas to acetylcholine (Ach) in vitro using the wire myograph (cumulative doses of Ach after precontraction to phenylephrine).
FIG. 3B is a graph of the aorta relaxation percentage in function of the logarithm of the concentration of acetylcholine (endothelium dependent relaxation to Ach) for control mice (1), EXP mice (2) and HFD mice (3).
FIG. 3C is a graph of the aorta relaxation percentage in function of the logarithm of the concentration of sodium nitroprusside (SNP) (endothelium independent relaxation to SNP) for control mice (1), EXP mice (2) and HFD mice (3).
as §1

[8] = system: inflammation, oxidative stress and endoplasmic reticulum stress markers in mesenteric arteries; experiment: Western blot markers in mesenteric arteries of HFD obese mice; format: in vivo
From the text: FIG. 4D is a western blot of P-eNOS, T-eNOS, BIP, CHOP, TNFα, P65 and GAPDH, in mesenteric arteries for the control mice, the HFD mice and the EXP mice.
as §1

[9] = system: inflammation, oxidative stress and ER stress markers in proximal colon; experiment: mRNA markers in proximal colon of angiotensin II hypertensive mice; format: in vivo
From the text: FIG. 9K is a heat map showing the markers in proximal colon from normotensive mice and hypertensive mice treated with and without low levan β-[2,6]-glycosidic linkages treatment.

[10] = Liver function (ALT, ALP) in HFD obese mice; format: in vivo; details: mice with obesity; levan 250 mg/Kg gavage 4 weeks
[11] = system: inflammation, oxidative stress and endoplasmic reticulum stress markers in thoracic aorta; experiment: Western blot and mRNA markers in thoracic aorta of angiotensin II hypertensive mice; format: in vivo
From the text: FIG. 8H is a western blot of IP3R1,p-Protein kinase-like endoplasmic reticulum kinase (PERK), t-PERK, P-eNOS, T-eNOS, BIP, NOX1, TNFα, P65, cytochrome c and GAPDH, in thoracic aorta for control mice administered vehicle (CTL), EXP mice administered angiotensin II and levan (A+L), and mice administered angiotensin II without levan (ANG).

[12] = system: inflammation, oxidative stress and ER stress markers in proximal colon; experiment: mRNA markers in proximal colon of HFD obese mice; format: in vivo
From the text: FIG. 5L is a heat map showing all the markers in proximal colon from control mice and mice fed with HFD in the presence and absence of low levan β-[2,6]-glycosidic linkages treatment.
as §1

[13] = listed as low MW levan β-[2,6]-glycosidic linkages
[14] = listed as low molecular levan having β-[2,6]-glycosidic linkages
[15] = HFD mice, levan 250 mg/Kg gavage 4 weeks, vs untreated HFD mice
[16] = mice with obesity, levan 250 mg/Kg gavage 4 weeks
[17] = obese mice, endothelium dependent relaxation after precontraction to phenylephrine

For levan [low MW levan], the endoplasmic reticulum stress [1] was “significantly reduced”, the inflammation [1] was “significantly reduced” and the oxidative stress [1] was “significantly reduced”. For the same substance, the endoplasmic reticulum stress [1, 13] was “decreased”, the inflammation [1, 13] was “decreased” and the oxidative stress [1, 13] was “decreased”. The ER stress [2, 13] was “decreased”, the inflammation [2, 13] was “decreased” and the oxidative stress [2, 13] was “decreased”. For the same substance, the ER stress [2, 14] was “reduced”, the inflammation [2, 14] was “reduced” and the oxidative stress [2, 14] was “reduced”. The lipid profile ([3]; HFD mice with obesity, levan 250 mg/Kg gavage 4 weeks) was “improved”, the fat mass % ([3]; HFD mice, levan 250 mg/Kg gavage 4 weeks, EchoMRI, vs untreated HFD mice) was “significantly decreased” and the lean mass % ([3]; HFD mice, levan 250 mg/Kg gavage 4 weeks, EchoMRI, vs untreated HFD mice, listed as low MW levan β-[2,6]-glycosidic linkages) was “increased”. For the same substance, the lean mass % ([3]; HFD mice, levan 250 mg/Kg gavage 4 weeks, EchoMRI, vs untreated HFD mice, listed as low molecular weight levan having β-[2,6]-glycosidic linkages) was “significantly increased”, the HDL [3, 15] was “significantly decreased” and the LDL [3, 15] was “significantly decreased”. For the same substance, the blood glucose [3, 15] was “significantly decreased”, the total cholesterol [3, 15] was “significantly decreased” and the triglyceride [3, 15] was “significantly decreased”. The body weight ([3]; vs untreated HFD mice, listed as Low MW levan β-[2,6]-glycosidic linkages) was “reduced”, the body weight ([3]; vs untreated HFD mice, listed as low molecular weight levan having β-[2,6]-glycosidic linkages) was “decreased” and the “endothelial function of resistance arteries (mesenteric artery)” value [4, 16] was “preserve”. The “vascular function in mesenteric arteries” value [4, 16] was “improved”, the “vascular response to acetylcholine (Ach), MRA” value [4, 17] was “improved” and the “damage to the liver function (ALT, ALP)” value [5] was “did not cause damage”. For the same substance, the “toxicity of dose and treatment period” value [5] was “not toxic”, the blood pressure [6] was “reduced” and the ER stress [7] was “reduced”. For the same substance, the inflammation [7] was “reduced”, the oxidative stress [7] was “reduced” and the vascular relaxation (aorta; hypertensive mice, aorta) was “improving”. The exacerbated vascular contraction (aorta; hypertensive mice, aorta contraction to PE, TXA, Ang II) was “reducing”, the “vascular function in the aorta” value (aorta; mice with hypertension (angiotensin II)) was “improved” and the “endothelial function of conductance artery (thoracic aortic)” value (thoracic aorta; [16]) was “preserve”. The “vascular function in aorta” value (thoracic aorta; [16]) was “improved”, the “vascular response to acetylcholine (Ach), aorta” value (thoracic aorta; [17]) was “improved” and the endoplasmic reticulum stress [8, 13] was “decreased”. For the same substance, the inflammation [8, 13] was “decreased”, the oxidative stress [8, 13] was “decreased” and the endoplasmic reticulum stress ([8]; listed as low levan) was “significantly reduced”. For the same substance, the inflammation ([8]; listed as low levan) was “significantly reduced”, the oxidative stress ([8]; listed as low levan) was “significantly reduced” and the ER stress [9] was “reduced”. For the same substance, the inflammation [9] was “reduced”, the oxidative stress [9] was “reduced” and the “liver function (ALT, ALP)” value [10] was “improved”. The “toxicity of the dose used” value [10] was “not toxic”, the endoplasmic reticulum stress [11] was “significantly reduced” and the inflammation [11] was “significantly reduced”. The oxidative stress [11] was “significantly reduced”, the ER stress [12, 13] was “decreased” and the inflammation [12, 13] was “decreased”. For the same substance, the oxidative stress [12, 13] was “decreased”, the ER stress [12, 14] was “reduced” and the inflammation [12, 14] was “reduced”. The oxidative stress [12, 14] was “reduced”.
